Test results reported in patent US20250034127A1, “AUTOPHAGY INDUCING COMPOUNDS AND USES THEREOF, IN PARTICULAR FOR DISEASES OF THE CNS” (Samsara Therapeutics Inc., priority 2021, published 2025).

Tested on: primary spinal cord lower motor neurons (MNs) from SOD1 G93A Tg rats
Test: Cellular model of Amyotrophic Lateral Sclerosis (glutamate injury)
Assay type: cell-based, rat
Procedure: Compounds 157 (particularly) preferred), 185 and 196 were selected example compounds if this invention to evaluate in this model. This model (run by Neuro-Sys SAS, France) evaluates the protective effects of test compounds on primary spinal cord lower motor neurons (MNs) from SOD1 G93A Tg rats, after a glutamate injury. The MNs are pre-treated with the test compounds for 1 hour prior to exposure to glutamate, and readouts are measured 24 hours later. This model functions as an in vitro model of Amyotrophic Lateral Sclerosis. […] Any substances which can attenuate one or more of these effects can be considered to have protective effects in the model and may be useful as a new therapeutic agent for the treatment or prevention of ALS.
Genotyping of SOD1 Tg embryos: Pregnant female rat SODIG93A (Sprague Dawley, Taconic), of 14 days of gestation were obtained fromTaconic Bioscience. On the day of the dissection (from pregnant females at 14 days of gestation), a piece of each embryo brain (˜3 mm) was placed in a 2 mL tube free DNase with a new scalpel. The DNA was extracted with the SYBR Green Extract-N-Amp tissue PCR kit (Sigma Aldrich). Briefly, 120 μL of extraction solution was put on each piece of embryo heads. Then, they were incubated for 10 min at room temperature. At the end of this incubation period, the heads were incubated for 5 min at 95° C. Immediately after this last incubation, 100 μL of neutralizing solution was added; each DNA extract was diluted at 1/40 and stored at +4° C. until use. SOD1G93A gene was determined using genomic fragment with human SOD1 primers (5′-[…]-3′ (SEQ ID NO: 1); 5′-[…]-3′ (SEQ ID NO: 2)). The SOD1 primers were diluted at 3 μM in sterile ultrapure water. Briefly, a mix for PCR was prepared with ultrapure water (4 μL per sample), primer at 3 μM (2 μL per sample) and Master Mix (10 μL per sample). In a PCR 96 wells plate, 16 μL of PCR mix was added in each well. 4 μL of each diluted DNA was added according to a plan deposit. The RT-PCR was ran using the CFX96 Biorad RT-PCR system, using the following program: Initial denaturation (95° C., 20 sec)/45 cycles (95° C., 10 sec; 65° C., 10 sec; 72° C., 30 sec)/Melt curve (95° C., 15 sec; 64° C., 1 min; 90° C., 30 sec; 60° C. 15 sec). The amplification plots and melt curves were analyzed with the Biorad software. The results for each sample were compared to negative control (ultrapure water) and to the positive control (DNA from Tg embryos).
Rat spinal cord motor neurons (MNs) were be cultured as described by Wang et al. 2013 and Boussicault et al., 2020. Briefly, pregnant female rats of 14 days gestation (Sprague Dawley; Taconic) were killed using a deep anesthesia with CO2 chamber and a cervical dislocation. Then, fetuses were removed from the uterus and immediately placed in ice-cold L15 Leibovitz medium with a 2% penicillin (10,000 U/ml) and streptomycin (10 mg/ml) solution (PS) and 1% bovine serum albumin (BSA).
Spinal cords were treated for 20 min at 37° C. with a trypsin-EDTA solution at a final concentration of 0.05% trypsin and 0.02% EDTA. The dissociation was stopped by addition of Dulbecco's modified Eagle's medium (DMEM) with 4.5 g/liter of glucose, containing DNAse I grade II (final concentration 0.5 mg/mL) and 10% fetal calf serum (FCS). Cells were mechanically dissociated by three forced passages through the tip of a 10-ml pipette. Cells were then centrifuged at 515×g for 10 min at 4° C. The supernatant was discarded, and the pellet was resuspended in a defined culture medium consisting of Neurobasal medium with a 2% solution of B27 supplement, 2 mmol/liter of L-glutamine, 2% of PS solution, and 10 ng/ml of brain-derived neurotrophic factor (BDNF). Viable cells were counted in a Neubauer cytometer, using the trypan blue exclusion test. The cells were seeded at a density of 20,000 per well in 96-well plates precoated with poly-L-lysine and will be cultured at 37° C. in an air (95%)—CO2 (5%) incubator. […]

CCN1CCC(N(C)C(=O)c2csc(-c3cnn(-c4ccccc4)c3)n2)CC1 [Compound 196, N-(1-ethylpiperidin-4-yl)-N-methyl-2-(1-phenyl-1H-pyrazol-4-yl)-1,3-thiazole-4-carboxamide]
effects in the in vitro model of ALS: positive effects | abnormal TDP43 accumulation in the cytoplasm resulting from glutamate injury (0.5 μM, 1 μM and 10 μM): fully abolished | increase in neurite network length (10 μM, compared to glutamate injury alone): 16% | increase in number of motor neurons (1 and 10 μM, compared to glutamate injury alone): > 10%
